The compounds below were run on Haemonchus contortus (assay: Haemonchus contortus larvacidal (larval development) assay, LD99). Settings: not given.
Format: in vitro
Experimental: The LD99 value is the dose, expressed as […], that was required to kill 99% of a sample of Haemonchus contortus.
a) Haemonchus Contortus Larvacidal Assay:
The effect of compounds on larval development was determined in the assay described by Gill et al. [International Journal of Parasitology 25:463-470 (1995)]. Briefly, in this assay, nematode eggs are applied to the surface of an agar matrix containing the test compound and then allowed to develop through to the L3, infective stage (6 days). The wells for each dilution of every compound (from highest to lowest concentration) are inspected to determine the well number corresponding to the lowest concentration at which development is inhibited in 99% of the nematode larvae present (LD99). Because well numbers correspond to a two-fold serial dilution of each compound, a titre (dilution factor) is generated as 2^n−1, where n is the well number. By dividing the highest concentration tested by the titre an LD99 value can be obtained, representing the concentration required to inhibit development in 99% of the nematode larvae present. The compounds supplied as solid and viscous liquids are dissolved in DMSO. Twelve serial one-half dilutions in DMSO solution are prepared from the stock solution, each of which is then diluted 1/5 with water. Aliquots (10 μl) of each dilution are transferred to the bioassay plates to give a final concentration range of 0.024 to 50 μg/ml.
(§1) In Table 7, provided below, are listed the Haemonchus contortus LD99 values (measured in micrograms/mL), the Ctenocephalides felis rapid screening values (measured in % mortality), the Ctenocephalides felis LC50 values (measured in micrograms/cm^2) and the Rhipicephalus sanguineus rapid screening values (measured in % mortality) for selected compounds in accordance with the present invention.
`CC(C)(C)c1ccc(Oc2cc(Cl)ccc2NS(=O)(=O)C(F)(F)F)cc1` [Compound 3] was tested, and the “Haemonchus contortus LD99” value was 7.0 µg/mL. For `O=S(=O)(Nc1ccc(Cl)cc1Oc1ccccc1Cl)C(F)(F)F` [Compound 6], the “Haemonchus contortus LD99” value was 15.0 µg/mL. `O=S(=O)(Nc1ccc(Cl)cc1Oc1ccc(Cl)c(Cl)c1)C(F)(F)F` [Compound 7] was tested, and the “Haemonchus contortus LD99” value was 1.63 µg/mL.

These compounds were tested on cat flea (Ctenocephalides felis) (assay: Ctenocephalides felis adulticide assay: single dose screen on treated glass surface (% mortality at 1.26 μg/cm^2, 24 hours)). Settings: Ctenocephalides felis, 24 h, read-out: Ctenocephalides felis Mortality (%) 24 h.
Format: in vivo
Experimental: The LC50 value is the concentration, expressed as μg/cm^2, that was required to kill 50% of the sample of cat fleas on contact with the tested compound. Certain tests are also reported as the percent of a sample of cat fleas that were killed at a concentration of 1.26 μg/cm^2 (“% mortality”), for the compounds tested in this way.
b) Ctenocephalides felis Adulticide Assay: C.felis single dose screen
Mortality of fleas is the primary endpoint in the assay. […] The concentration chosen (1.26 μg/cm^2) is higher than that known to kill 90% of cat fleas (LC90) using the reference compound, permethrin.
The test species employed was the cat flea (Ctenocephalides felis). The strain used was obtained from external suppliers as pupae and held in the laboratory under testing conditions until the adults had emerged. Fifteen (15) fleas were used in a minimum of four replicates against a single concentration level (approximately 60 fleas). The insects were selected to be in the adult life stage, aged between 3 and 7 days post emergence.
The compounds to be tested were supplied as solids and were prepared in acetone as described below prior to testing. Samples were stored in a refrigerator (5±1° C.) unless otherwise specified.
During the mortality testing, the temperature was maintained at 25±1° C. Humidity was maintained at 75±5%. The base (area=159 mm^2) of a 100 mL glass Erlenmeyer (conical) flask provided the treatment surface. Flasks were pre-treated with Coatasil™ glass treatment to maximise bio-availability of test compounds by preventing them from binding to glass the surface. The base of the 100 mL Erlenmeyer flask was treated with 0.5 mL of test sample in acetone and gently swirled. This volume was sufficient to cover the base of the flask. Flasks were left to dry for 24 hours before flea exposure.
Adult cat fleas were placed into a sorting chamber, which allowed fleas to jump into the Erlenmeyer flasks. Fifteen (15) adult cat fleas were collected in each flask. The top of the flasks were then covered in Parafilm™ and small holes were made to allow gas exchange. A 0.5 mL volume of acetone as a solvent control was applied to the base of an Erlenmeyer flask and the testing proceeded in the same manner described above. […] Pooled 24 hour mortality data were converted to percentages and are summarized by Table 4, below.
as §1
`O=S(=O)(Nc1ccc(Cl)cc1Oc1ccccc1-c1ccccc1)C(F)(F)F` [Compound 74, N-[2-(Biphenyl-2-yloxy)-4-chlorophenyl]-1,1,1-trifluoromethanesulfonamide] was tested, and the mortality at 1.26 µg/cm2, 1.26 µg/cm2 was 81%. Compound `O=S(=O)(Nc1ccc(Cl)cc1Nc1ccc(Cl)cc1)C(F)(F)F` [Compound 91, N-[4-Chloro-2-(4-chlorophenylamino)-phenyl]-1,1,1-trifluoromethanesulphonamide] has a mortality at 1.26 µg/cm2, 1.26 µg/cm2 of 13%. `O=S(=O)(N(Cc1ccccc1)c1ccc(Cl)cc1Oc1ccc(Cl)cc1Cl)C(F)(F)F` [Compound 92, N-benzyl-N-[4-chloro-2-(2,4-dichlorophenoxy)phenyl]-1,1,1-trifluoromethanesulfonamide] showed a mortality at 1.26 µg/cm2, 1.26 µg/cm2 of 57%. `CCOCN(c1cccc(Oc2ccc(Cl)cc2Cl)c1)S(=O)(=O)C(F)(F)F` [Compound m7, N-Ethoxymethyl-N-[3-(2,4-dichlorophenoxy)phenyl]-1,1,1-trifluoromethanesulfonamide] was tested, and the mortality at 1.26 µg/cm2, 1.26 µg/cm2 was 5%. In the case of `O=S(=O)(Nc1ccc(Oc2ccc(Cl)cc2Cl)c(Cl)c1)C(F)(F)F` [Compound p7, N-[3-Chloro-4-(2,4-dichlorophenoxy)phenyl]-1,1,1-trifluoromethanesulfonamide], the mortality at 1.26 µg/cm2, 1.26 µg/cm2 is reported as 22%.

Same assay, conditions: adult cat fleas, single dose screen on treated glass surface, mortality at 24 h
For `O=S(=O)(Nc1ccc(Cl)cc1Oc1ccc(Cl)c(Cl)c1)C(F)(F)F` [Compound 7], the “Ctenocephalides felis Mortality (%) 24 h” value was 22%.

Same assay, conditions: in vivo
With `CC(C)(C)c1ccc(Oc2cc(Cl)ccc2NS(=O)(=O)C(F)(F)F)cc1` [Compound 3] the “Ctenocephalides felis Mortality (%) 24 h” value was 58%. For `O=S(=O)(Nc1ccc(Cl)cc1Oc1ccccc1Cl)C(F)(F)F` [Compound 6], the “Ctenocephalides felis Mortality (%) 24 h” value was 74%. For `O=S(=O)(Nc1ccc(Cl)cc1[S+]([O-])c1ccc(Cl)cc1)C(F)(F)F` (stereo not drawn) [Compound 23, N-[4-chloro-2-(4-(chlorophenyl)sulfinyl)phenyl]-1,1,1-trifluoromethanesulfonamide], the “Ctenocephalides felis Mortality (%) 24 h” value was 3%. `CC(C)c1ccccc1Oc1cc(Cl)ccc1NS(=O)(=O)C(F)(F)F` [Compound 39] was tested, and the “Ctenocephalides felis Mortality (%) 24 h” value was 75%. For `O=S(=O)(Nc1ccc(Cl)cc1Oc1ccccc1)C(F)(F)F` [Compound 40], the “Ctenocephalides felis Mortality (%) 24 h” value was 39%. `CC(C)(C)c1ccccc1Oc1cc(Cl)ccc1NS(=O)(=O)C(F)(F)F` [Compound 42] was tested, and the “Ctenocephalides felis Mortality (%) 24 h” value was 88%. For `O=S(=O)(Nc1ccc(Cl)cc1Oc1ccc(Oc2ccccc2)cc1)C(F)(F)F` [Compound 47], the “Ctenocephalides felis Mortality (%) 24 h” value was 36%. For `COc1ccc(Oc2cc(Cl)ccc2NS(=O)(=O)C(F)(F)F)cc1` [Compound 49], the “Ctenocephalides felis Mortality (%) 24 h” value was 24%. In the case of `N#Cc1cccc(Oc2cc(Cl)ccc2NS(=O)(=O)C(F)(F)F)c1` [Compound 50], the “Ctenocephalides felis Mortality (%) 24 h” value is reported as 14%. For `N#Cc1ccc(NS(=O)(=O)C(F)(F)F)c(Oc2ccc(Cl)cc2)c1` [Compound 51], the “Ctenocephalides felis Mortality (%) 24 h” value was 10%. `N#Cc1ccc(NS(=O)(=O)C(F)(F)F)c(Oc2ccc(Cl)cc2Cl)c1` [Compound 52] was tested, and the “Ctenocephalides felis Mortality (%) 24 h” value was 23%. `N#Cc1ccc(NS(=O)(=O)C(F)(F)F)c(Oc2ccccc2F)c1` [Compound 53] was tested, and the “Ctenocephalides felis Mortality (%) 24 h” value was 9%. `Cc1ccccc1Oc1cc(C#N)ccc1NS(=O)(=O)C(F)(F)F` [Compound 54] was tested, and the “Ctenocephalides felis Mortality (%) 24 h” value was 5%. `N#Cc1ccc(Oc2cc(Cl)ccc2NS(=O)(=O)C(F)(F)F)cc1` [Compound 56] was tested, and the “Ctenocephalides felis Mortality (%) 24 h” value was 6%. With `N#Cc1ccc(NS(=O)(=O)C(F)(F)F)c(Oc2ccc(F)c(F)c2)c1` [Compound 57] the “Ctenocephalides felis Mortality (%) 24 h” value was 2%. For `COc1cccc(Oc2cc(Cl)ccc2NS(=O)(=O)C(F)(F)F)c1` [Compound 58], the “Ctenocephalides felis Mortality (%) 24 h” value was 87%. `N#Cc1ccc(NS(=O)(=O)C(F)(F)F)c(Oc2cccc(C(F)(F)F)c2)c1` [Compound 60] was tested, and the “Ctenocephalides felis Mortality (%) 24 h” value was 5%. In the case of `O=S(=O)(Nc1ccc(Cl)cc1Sc1ccccc1Cl)C(F)(F)F` [Compound 62], the “Ctenocephalides felis Mortality (%) 24 h” value is reported as 25%. In the case of `O=S(=O)(Nc1cc(C(F)(F)F)ccc1Sc1ccccc1)C(F)(F)F` [Compound 63], the “Ctenocephalides felis Mortality (%) 24 h” value is reported as 10%. In the case of `O=S(=O)(Nc1cc(C(F)(F)F)ccc1Sc1ccccc1Cl)C(F)(F)F` [Compound 64], the “Ctenocephalides felis Mortality (%) 24 h” value is reported as 14%. `O=S(=O)(Nc1cc(C(F)(F)F)ccc1Sc1ccc(F)cc1)C(F)(F)F` [Compound 65] was tested, and the “Ctenocephalides felis Mortality (%) 24 h” value was 21%. With `O=S(=O)(Nc1cc(C(F)(F)F)ccc1Sc1ccccc1F)C(F)(F)F` [Compound 66] the “Ctenocephalides felis Mortality (%) 24 h” value was 20%. `O=S(=O)(Nc1cc(C(F)(F)F)ccc1Sc1ccc(Br)cc1)C(F)(F)F` [Compound 67] was tested, and the “Ctenocephalides felis Mortality (%) 24 h” value was 5%. For `O=S(=O)(Nc1ccc(Cl)cc1Oc1cc(Cl)ccc1Cl)C(F)(F)F` [Compound 69], the “Ctenocephalides felis Mortality (%) 24 h” value was 58%. In the case of `CCN(c1ccc(Cl)cc1Oc1ccc(Cl)cc1Cl)S(=O)(=O)C(F)(F)F` [Compound 76], the “Ctenocephalides felis Mortality (%) 24 h” value is reported as 3%. `CN(c1ccc(Cl)cc1Oc1ccccc1F)S(=O)(=O)C(F)(F)F` [Compound 77] was tested, and the “Ctenocephalides felis Mortality (%) 24 h” value was 20%. In the case of `CCN(c1ccc(Cl)cc1Oc1ccccc1F)S(=O)(=O)C(F)(F)F` [Compound 78], the “Ctenocephalides felis Mortality (%) 24 h” value is reported as 80%. With `COCN(c1ccc(Cl)cc1Oc1ccccc1F)S(=O)(=O)C(F)(F)F` [Compound 79] the “Ctenocephalides felis Mortality (%) 24 h” value was 60%. For `CCOCN(c1ccc(Cl)cc1Oc1ccccc1F)S(=O)(=O)C(F)(F)F` [Compound 80], the “Ctenocephalides felis Mortality (%) 24 h” value was 9%. For `O=S(=O)(N(Cc1ccccc1)c1ccc(Cl)cc1Oc1ccccc1F)C(F)(F)F` [Compound 81], the “Ctenocephalides felis Mortality (%) 24 h” value was 1%. In the case of `CC(C)N(c1ccc(Cl)cc1Oc1ccc(Cl)cc1Cl)S(=O)(=O)C(F)(F)F` [Compound 86], the “Ctenocephalides felis Mortality (%) 24 h” value is reported as 66%. In the case of `CC(C)N(c1ccc(Cl)cc1Oc1ccccc1F)S(=O)(=O)C(F)(F)F` [Compound 87], the “Ctenocephalides felis Mortality (%) 24 h” value is reported as 24%. With `CC(C)(C)C(=O)OCN(c1ccc(Cl)cc1Oc1ccccc1F)S(=O)(=O)C(F)(F)F` [Compound 88] the “Ctenocephalides felis Mortality (%) 24 h” value was 73%. `CCCC(=O)OCN(c1ccc(Cl)cc1Oc1ccccc1F)S(=O)(=O)C(F)(F)F` [Compound 89] was tested, and the “Ctenocephalides felis Mortality (%) 24 h” value was 6%. `O=S(=O)(Nc1cccc(Oc2ccc(Cl)cc2Cl)c1)C(F)(F)F` [Compound m6, N-[3-(2,4-dichlorophenoxy)phenyl]-1,1,1-trifuoromethanesulfonamide] was tested, and the “Ctenocephalides felis Mortality (%) 24 h” value was 34%. With `CN(c1cccc(Oc2ccccc2)c1)S(=O)(=O)C(F)(F)F` [m2] the “Ctenocephalides felis Mortality (%) 24 h” value was 88%. In the case of `CC(C)(C)C(=O)OCN(c1cccc(Oc2ccccc2)c1)S(=O)(=O)C(F)(F)F` [m5], the “Ctenocephalides felis Mortality (%) 24 h” value is reported as 72%. `O=S(=O)(Nc1ccc(Oc2ccccc2)cc1)C(F)(F)F` [p1] was tested, and the “Ctenocephalides felis Mortality (%) 24 h” value was 84%. `CN(c1ccc(Oc2ccccc2)cc1)S(=O)(=O)C(F)(F)F` [p2] was tested, and the “Ctenocephalides felis Mortality (%) 24 h” value was 64%. For `CCOCN(c1ccc(Oc2ccccc2)cc1)S(=O)(=O)C(F)(F)F` [p3], the “Ctenocephalides felis Mortality (%) 24 h” value was 72%. For `COCN(c1ccc(Oc2ccccc2)cc1)S(=O)(=O)C(F)(F)F` [p4], the “Ctenocephalides felis Mortality (%) 24 h” value was 49%. In the case of `CC(C)(C)C(=O)OCN(c1ccc(Oc2ccccc2)cc1)S(=O)(=O)C(F)(F)F` [p5], the “Ctenocephalides felis Mortality (%) 24 h” value is reported as 54%. With `O=S(=O)(Nc1ccc(Oc2ccc(Cl)cc2Cl)cc1C(F)(F)F)C(F)(F)F` [p6] the “Ctenocephalides felis Mortality (%) 24 h” value was 28%. For `O=S(=O)(Nc1ccc(Oc2ccc(Cl)cc2Cl)c(F)c1)C(F)(F)F` [p8], the “Ctenocephalides felis Mortality (%) 24 h” value was 4%. With `O=S(=O)(Nc1ccc(Oc2ccc(Cl)cc2Cl)c(C(F)(F)F)c1)C(F)(F)F` [p9] the “Ctenocephalides felis Mortality (%) 24 h” value was 44%.

From US20060281695A1, “Control of parasites in animals by N-[(phenyloxy)phenyl]-1,1,1-trifluoromethanesulfonamide and N-[(phenylsulfanyl)phenyl]-1,1,1-trifluoromethanesulfonamide derivatives” (priority 2005, published 2006)
